“Also recorded” adds a separate entry of the source.

Data set [1] can be described thus: Simultaneous dual-radiotracer SPECT/CT imaging of 99mTc-Sestamibi and 201Tl-Cl uptake. The format is in vivo, mouse and rat. The note with it: FIG. 1; for retention in muscle: i.v. single injection of both agents, imaging 3 hours later. The method, then:
This example describes an imaging approach for assessing skeletal muscle health by administering ^99mTc-Sestamibi and ^201Tl—Cl both in a single intravenous injection and then simultaneously detecting their accumulation into skeletal muscle through SPECT imaging via distinct radiation energy windows, which are specific for each isotope. Through this approach, each imaging agent alone, as well as the change in uptake of one agent relative to the other, was measured, permitting evaluation of multiple physiological processes in muscle simultaneously.
Imaging agents (^99mTc-Sestamibi and ^201Tl-Chloride) were ordered from commercial radiopharmacies for calibration and delivery on each day of SPECT imaging. Imaging agents were administered by intravenous injection in the lateral tail-vein. Animals were returned to their cages after injection for the distribution period or placed directly on the imaging system for SPECT acquisition, depending on the imaging protocol and desired time-points. For the imaging session, subjects were anesthetized using a gas mixture of isoflurane and oxygen. In-vivo SPECT and CT data were acquired using the NanoSPECT/CT® (Bioscan, Washington, D.C.), a dual modality imaging system that combines a 4-headed SPECT camera with a computed tomography (CT) acquisition system on the same axis of rotation. During imaging, subjects were placed on a heated bed with integrated anesthesia delivery and bed heating. The animals' body temperatures were maintained at 36 to 37° C. for the duration of image acquisition. Each imaging time-point included three scans: a planar x-ray scout scan, an x-ray CT scan for anatomical reference (6-9 min., 45-65 KVp, 180 angular projections per FOV), and a SPECT scan (20-90 min., 20 angular projections per FOV). SPECT data were reconstructed using the HiSPECT processing module (Scivis GmbH, Gottingen, Germany). […] Uptake and concentration of radiotracer were quantified in select regions-of-interest (ROI) using the VivoQuant™ post-processing suite. […]

The subject of data set [2] is skeletal muscle. The experiment in a line: Effect of neuromuscular stimulation with edrophonium on 99mTc-Sestamibi and 201Tl-Cl uptake into muscle (SPECT/CT). Type of data set: in vivo, rats. The method, then:
In order to assess the action of neuromuscular stimulation on ^99mTc-Sestamibi and ^201Tl—Cl uptake into muscle we used the acetylcholinesterase inhibitor edrophonium (0.2 mg/kg, i.v.) to enhance ongoing neuromuscular synaptic transmission. We used three different cohorts of animals (n=3). In one cohort we examined baseline neuromuscular activity by giving the ^99mTc-Sestamibi and ^201Tl—Cl (listed as m/t in figure) at time zero and acquiring images under brief isoflurane anesthesia at 30 minutes post injection. Another cohort received edrophonium injection immediately following the m/t dosing but prior to the imaging under anesthesia. The last cohort received the edrophonium 30 minutes prior to the m/t dosing. This approach standardized the anesthesia and imaging phase of the experiment while making the edrophonium dose timing the only variable.
FIG. 4 is an exemplary schematic diagram of an experiment assessing the impact of edrophonium on the pharmacokinetics of ^99mTc-Sestamibi and ^201Tl—Cl. ^99mTc-Sestamibi and ^201Tl—Cl were imaged in three cohorts of rats (n of 3 each): control/baseline; prior to injection of 0.2 mg/kg of edrophonium; following injection of 0.2 mg/kg of edrophonium. Whole body SPECT/CT images were collected 30 minutes post-injection of the mixed ^99mTc-Sestamibi and ^201Tl—Cl dose. The drugs' gamma emissions of the radioisotopes (^99mTc and ^201Tl) were collected in separate energy windows, permitting simultaneous imaging of the relevant radiopharmaceuticals. […] Thallium uptake was increased by the introduction of edrophonium in control rats as indicated qualitatively by brighter muscle uptake on a common scale.
However, either pre- or post-m/t, edrophonium dosing had no effect on ^99mTc-Sestamibi uptake into muscle. FIG. 6 depicts comparison of radiopharmaceutical uptake in skeletal muscle between two imaging paradigms. The ‘+’ represents subjects that received an edrophonium injection (i.v.) immediately after radiotracer administration. […] All other aspects of data collection were identical between the ‘+’ and ‘−’ scenarios. Quantitative units of radioactivity per volume was expressed as uptake: percent injected dose (% ID), activity (mCi, kBq).

The subject of data set [3] is skeletal muscle. Nature of the data set: Effect of continuous isoflurane anesthesia on muscle uptake of the two radiopharmaceutical agents (SPECT). The format is in vivo. As to conditions: continuous anesthesia through 30 minute uptake period vs awake uptake period; right and left legs; FIG. 3. The method, then: Imaging agents (^99mTc-Sestamibi and ^201Tl-Chloride) were ordered from commercial radiopharmacies for calibration and delivery on each day of SPECT imaging. Imaging agents were administered by intravenous injection in the lateral tail-vein. Animals were returned to their cages after injection for the distribution period or placed directly on the imaging system for SPECT acquisition, depending on the imaging protocol and desired time-points. For the imaging session, subjects were anesthetized using a gas mixture of isoflurane and oxygen. In-vivo SPECT and CT data were acquired using the NanoSPECT/CT® (Bioscan, Washington, D.C.), a dual modality imaging system that combines a 4-headed SPECT camera with a computed tomography (CT) acquisition system on the same axis of rotation. During imaging, subjects were placed on a heated bed with integrated anesthesia delivery and bed heating. The animals' body temperatures were maintained at 36 to 37° C. for the duration of image acquisition. […] Uptake and concentration of radiotracer were quantified in select regions-of-interest (ROI) using the VivoQuant™ post-processing suite.
This need for imaging under anesthesia in animals is not necessary in human imaging studies. […] Quantitative units of radioactivity per volume was expressed as uptake: percent injected dose (% ID), activity (mCi, kBq). […]

For data set [4] the following is noted: prepared radiopharmaceutical; cited from earlier work.
For data set [5] the following is noted: in vivo; cited from earlier work.
[6] abbreviates: edrophonium i.v. immediately after radiotracer administration vs none, FIG. 6.

`[Cl][201Tl]` [^201Tl—Cl, ^201Thallium-Chloride]: the retention in muscle entry in data set [1] was “consistent retention”. In data set [1] (i.v., imaging 3 hours post-injection), the “muscle accumulation, extent relative to 99mTc-Sestamibi” value is on record as “more widespread”.

Regarding `CC[N+](C)(C)c1cccc(O)c1` [edrophonium], the “99mTc-Sestamibi uptake into muscle” value in the data set with skeletal muscle [2] (edrophonium 0.2 mg/kg i.v., either pre- or post-m/t dosing, images 30 minutes post-injection) is listed as “no effect”. In addition, the “201Tl uptake into muscle” value in the data set on skeletal muscle [2] (edrophonium 0.2 mg/kg i.v., pre- or post-m/t dosing vs baseline, images 30 minutes post-injection, FIG. 5) is recorded as “dramatically enhanced; also recorded: increased”. For the same compound, in the data set with skeletal muscle [2] (setting [6]), the “99mTc-Sestamibi uptake in skeletal muscle, statistical evaluation” value was “not” and the “201Tl uptake in skeletal muscle, statistical evaluation” value is given as “highly significant edrophonium effect”.

Take `FC(F)OC(Cl)C(F)(F)F` (centres unmarked) [isoflurane]: in the data set on skeletal muscle [3], the “accumulation of both agents (99mTc-Sestamibi and 201Tl-Cl) into muscle” value is “inhibited”.

On to ^99mTc-Teboroxime, for which the stability in data set [4] was 6 h. For the same compound, in data set [5], the biological half-life entry is on record as “short” and the extraction efficiency entry is given as “high”.

Take `[C-]#[N+]CC(C)(C)OC.[C-]#[N+]CC(C)(C)OC.[C-]#[N+]CC(C)(C)OC.[C-]#[N+]CC(C)(C)OC.[C-]#[N+]CC(C)(C)OC.[C-]#[N+]CC(C)(C)OC.[Tc]` [^99mTc-Sestamibi]: in data set [1], the retention in muscle result is “consistent retention”. Further, in data set [4], the stability was 6 h. For the same compound, in data set [5], the biological half-life result is on record as “long” and the extraction efficiency entry was “high”.
